Reference: patent US10624968B2, “Compounds for treating cancer” (Bicycle Therapeutics Limited, priority 2017, dated 2020)
Where two headings read alike, the source gives them in different places. Non-standard residues stand in square brackets, D forms with d. Residues, ends and D or L forms follow the SMILES beside them. *: point of attachment. Dolaproine = CO[C@@H]([C@@H]1CCCN1)[C@@H](C)C(=O)O; Dil = CC[C@H](C)[C@H](NC)[C@@H](CC(=O)O)OC; X1 = C[C@@H](N*)[C@@H](O)c1ccccc1; NMeV = CN[C@H](C(=O)O)C(C)C

What was measured:
[1] = system: HT29; experiment: cells; settings: for IC50: read-out: Re IC50
From the text: (§1) Details of the initial cell plating procedure are described in Table 3.
(§2) Data Details for Tables 5 and 6. Inhibition %=(Max−Sample value)/(Max−Min)*100.
(§3) The IC50 curves were generated by 4 Parameter Logistic Model—Sigmoidal Dose-Response Model as follows: Y=Bottom+(Top−Bottom)/(1+10^((log EC50-X)*HillSlope)).

[2] = system: HCC1806; experiment: cells; settings: for IC50: read-out: Re IC50
From the text: as §1, §2, §3

[3] = system: PC-3; experiment: cells; settings: for IC50: read-out: Re IC50
From the text: as §1, §2, §3

[4] = system: EBC-1; experiment: cells; settings: for IC50: read-out: Re IC50
From the text: as §1, §2, §3

[5] = system: HCT15; experiment: cells; settings: for IC50: read-out: Re IC50
From the text: as §1, §2, §3

[6] = system: SNU-16; experiment: cells; settings: for IC50: read-out: Re IC50
From the text: as §1, §2, §3

[7] = system: MDA-MB-231; experiment: cells; settings: for IC50: read-out: Re IC50
From the text: as §1, §2, §3

[8] = system: NCI-H292; experiment: cells; settings: for IC50: read-out: Re IC50
From the text: as §1, §2, §3

[9] = system: HT1080; experiment: cells; settings: for IC50: read-out: Re IC50
From the text: as §1, §2, §3

[10] = system: NCI-H1975; experiment: cells; settings: for IC50: read-out: Re IC50
From the text: as §1, §2, §3

[11] = system: MOLP-8; experiment: cells; settings: for IC50: read-out: Re IC50
From the text: as §1, §2, §3

[12] = system: HT1080 cells; experiment: Cytotoxicity in HT1080 cells in presence and absence of 1 mM bacitracin (ATPlite, 24 hour exposure)
Method: HT1080 cells (ATCC, via LGC, BIC918) Maintained in EMEM media (Sigma M2279)+10% FBS (Sigma Code F7524)+4 mM L-Glu (Invitrogen Cat 25030-024)
I-1a and Toxins with Bacitracin—24 or 72 Hour Exposure in 96 Well Plates
DB seeded cells in normal media, 75 μL in 96 well clear plates, ˜24 hours previous.
HT1080—7.5 k cells/well: 50% confluent upon dosing.
Dilute in media 1:42.85=5 μL DMSO dilute+209 μL media=>use 15 μL per well
This gives a 5 μM top concentration for BDCs in assay
Add 10 µL of media±bacitracin (2 plates of each)−leave for 1 hr
(§4) Bacitracin=1 mM final concentration. This requires a 10 mM concentration with no DMSO.
Add 15 μL treatment per well as in Table 19, below.
Seal plates with gas permeable membrane and incubate at 37° C.
Washout HT1080 plates with 2×150 μL PBS at 24 h and add 100 μL fresh media
At t=72 h, equilibrate ATPlite reagent to room temperature. Add 10 ml buffer to each vial of lyophilized substrate. Add 100 μL reagent per well. Seal with PCR seal and cover to protect from light. Shake for 20 mins before reading luminescence

[13] = system: L540 cells; experiment: Cytotoxicity in L540 cells in presence and absence of 1 mM bacitracin (ATPlite, 72 hour exposure); type: cell-based
Method: L540 cells (DSMZ # ACC72, BIC5121), maintained in RPMI-1640 medium (Sigma # R8758)+20% heat-inactivated serum
L540—20 k cells/well: 40% confluent upon dosing.
as §4
Add 100 μL reagent per well. […] Shake for 20 mins before reading luminescence

[14] = system: HT1080 cells; experiment: HT1080 cytotoxicity (ATPLite) in presence or absence of excess binding or non-binding peptide; type: cell-based; settings: for IC50: mean ± standard deviation
Method: The target dependence of cytotoxicity of I-1a in cell lines expressing or lacking MT1-MMP was assessed by measuring ATP levels in an endpoint assay after 24 hours exposure to toxin, in the presence or absence of an excess of binding peptide or non-binding control peptide.
HT1080 cells were seeded in 96 well plates (75 μL/well) and incubated overnight at 37° C.+5% CO2. The next day, peptides were prepared in buffer from a DMSO stock. 10 μL of buffer or peptide was added to the cells and incubated for 1 hour. Toxins were diluted in cell culture media and 15 μL/well was added to the cells (<0.5% final DMSO). Cells were approximately 30-50% confluent upon dosing. Plates were sealed with gas permeable seals and incubated for 24 hours at 37° C.+5% CO2. After 24 hours, media was removed, cells were washed with PBS and 100 μL fresh media was added per well. Cells were incubated for a further 48 hours at 37° C.+5% CO2.
ATPLite reagent (Perkin Elmer) was equilibrated to room temperate and reconstituted in buffer as per the manufacturer's instructions. 100 μL reagent was added per well. Plates were sealed and shaken gently for 20 minutes to ensure complete cell lysis before luminescence was read using a BMG Pherastar. […] Data was analyzed using GraphPad Prism. Non-linear regression fit was used to calculate an IC50 for each toxic agent: Y=Bottom+(Top−Bottom)/(1+10^((Log IC50-X)*HillSlope)).

[15] = system: 11 tumor cell lines; experiment: 11 cancer cell line panel cytotoxicity, statements on the whole panel; settings: 72 h, read-out: IC50 on all 11 tumor cell lines
From the text: as §1, §2, §3

[16] = read-out: IC50 with 1 mM bacitracin, 24 hour exposure, + 1 mM bacitracin (PDI inhibitor)
[17] = read-out: Standard IC50, 24 hour exposure (high MT1 expression), no block
[18] = 72 hour exposure (low/no MT1 expression), no block, read-out: Standard IC50
[19] = read-out: IC50 with 1 mM bacitracin, 72 hour exposure, + 1 mM bacitracin

Row | SMILES | Top inhibition% ([1]; HT29, 72 hours) [%] | IC50 ([1]; HT29, 72 hours) [nM] | Top inhibition% ([2]; HCC1806, 72 hours) [%] | IC50 ([2]; HCC1806, 72 hours) [nM] | Top inhibition% ([3]; PC-3, 72 hours) [%] | IC50 ([3]; PC-3, 72 hours) [nM] | Top inhibition% ([4]; EBC-1, 72 hours) [%] | IC50 ([4]; EBC-1, 72 hours) [nM] | Top inhibition% ([5]; HCT15, 72 hours) [%] | IC50 ([5]; HCT15, 72 hours) [nM] | Top inhibition% ([6]; SNU-16, 72 hours) [%] | IC50 ([6]; SNU-16, 72 hours) [nM] | Top inhibition% ([7]; MDA-MB-231, 72 hours) [%] | IC50 ([7]; MDA-MB-231, 72 hours) [nM] | Top inhibition% ([8]; NCI-H292, 72 hours) [%] | IC50 ([8]; NCI-H292, 72 hours) [nM] | Top inhibition% ([9]; HT1080, 72 hours) [%] | IC50 ([9]; HT1080, 72 hours) [nM] | Top inhibition% ([10]; NCI-H1975, 72 hours) [%] | Top inhibition% ([11]; MOLP-8, 72 hours) [%] | other results
1 | COc1cc2cc(c1Cl)N(C)C(=O)C[C@H](OC(=O)[C@H](C)N(C)C(=O)CCSSC)[C@]1(C)O[C@H]1[C@H](C)[C@@H]1C[C@@](O)(NC(=O)O1)[C@H](OC)/C=C/C=C(\C)C2 [DM1-Sme] | 82 | 0.68 | 88 | 0.62 | 54 | 0.18 | 65 | 0.32 | 94 | 0.94 | 98 | 0.77 | 49 | 0.79 | 77 | 0.27 | 99 | 0.22 | 64 | 92 | IC50 ([10]; NCI-H1975, 72 hours): 1.52 nM; IC50 ([11]; MOLP-8, 72 hours): 0.21 nM; Fold shift with bacitracin ([12]; 24 hour exposure, 1 mM bacitracin vs none): 5.9; IC50 [12, 16]: 0.41 nM; IC50 [12, 17]: 0.07 nM; IC50 [13, 18]: 9.6 nM; IC50 [13, 19]: 12 nM
2 | CC[C@H](C)[C@@H]([C@@H](CC(=O)N1CCC[C@H]1[C@H](OC)[C@@H](C)C(=O)N[C@H](C)[C@@H](O)c1ccccc1)OC)N(C)C(=O)[C@@H](NC(=O)[C@@H](NC)C(C)C)C(C)C [MMAE, monomethyl auristatin E] (H-[NMeV]V[Dil][Dolaproine]-X1) | 81 | 0.42 | 91 | 0.26 | 58 | 0.85 | 67 | 0.35 | 100 | 21.4 | 99 | 0.18 | 61 | 0.62 | 86 | 0.34 | 97 | 0.68 | 65 | 93 | IC50 ([10]; NCI-H1975, 72 hours): 0.38 nM; IC50 ([11]; MOLP-8, 72 hours): 0.65 nM; IC50 ([14]; 24 hours exposure, No block, 3 repeats): 0.06 nM; Maximum kill ([14]; +250 μM binding peptide): 95%; IC50 ([14]; +250 μM binding peptide): 0.05 nM; Maximum kill ([14]; +250 μM non-binding peptide): 95%; IC50 ([14]; +250 μM non-binding peptide): 0.05 nM; Maximum kill ([14]; No block, compared to a lysis control): 95%; IC50 [12, 16]: 0.15 nM; IC50 [12, 17]: 0.083 nM; IC50 [13, 18]: 0.49 nM; IC50 [13, 19]: 0.28 nM
3 | CCc1c2c(nc3ccc(O)cc13)-c1cc3c(c(=O)n1C2)COC(=O)[C@]3(O)CC [SN38] | 98 | – | 96 | – | 78 | – | 87 | – | 80 | – | 76 | – | 78 | – | 92 | – | 96 | – | 116 | 88 | IC50 ([1]; Homo sapiens, HT-29, 72 h): 23.7 nM; IC50 ([2]; Homo sapiens, HCC1806, 72 h): 4.69 nM; IC50 ([3]; Homo sapiens, PC-3, 72 h): 48.7 nM; IC50 ([4]; Homo sapiens, EBC-1, 72 h): 2.34 nM; IC50 ([5]; Homo sapiens, HCT-15, 72 h): 11.5 nM; IC50 ([6]; Homo sapiens, SNU-16, 72 h): 2.14 nM; IC50 ([7]; Homo sapiens, MDA-MB-231, 72 h): 25.1 nM; IC50 ([8]; Homo sapiens, NCI-H292, 72 h): 3.48 nM; IC50 ([9]; Homo sapiens, HT-1080, 72 h): 1.35 nM; IC50 ([10]; Homo sapiens, NCI-H1975, 72 h): 272 nM; IC50 ([11]; Homo sapiens, MOLP-8, 72 h): 3.59 nM; IC50 [15]: < 300 nM
